Laboratory results published in patent US20220411880A1, “METHODS AND COMPOSITIONS FOR DIAGNOSING AND TREATING CHRONIC MYELOMONOCYTIC LEUKEMIA (CMML)” (INSERM (INSTITUT NATIONAL DE LA SANTÉET DE LA RECHERCHE …, priority 2019, published 2022).

How the values were obtained:
[1] = tested on: ABCA1 mutant-transduced Tet2 deficient BM cells; assay: [3H]-thymidine proliferation assay in ex vivo BM liquid culture; type: cell-based, mouse; conditions: FIG. 5E
Source text: FIG. 5. Cholesterol accumulation couples ABCA1 invalidation and Tet2 deficiency to IL-3 receptor β signaling hypersensitivity. (A-D) Quantification of BODIPY staining by flow cytometry expressed as mean fluorescence intensity (MFI) as a surrogate of cellular cholesterol neutral lipid per cell in BM hematopoietic stem (A and C) and progenitor (B and D) cells (i.e, LSKs, MEPs, CMPs and GMPs) of recipient mice transplanted with Mx1-Cre^+, Mx1-Cre^+ Abca1^fl/fl, MX1-Cre^+Tet2^fl/fl and Mx1-Cre^+Tet2^fl/flAbca1^fl/fl BM (A and B) or control and Mx1-Cre^+Tet2^fl/fl BM expressing empty, ABCA1-WT or ABCA1 mutants (C and D). (E) Expression of mRNA was normalized to m36B4. mRNA levels were expressed as percentage over WT whole BM cells. Proliferation rates were determined after 2 h [^3H]-thymidine pulse labeling in BM cells from empty, ABCA1-WT and ABCA1 mutants-transduced animals on a Tet2 deficient background that were grown for 72 h in liquid culture in the presence or absence of 6 ng/mL IL-3 and 2 ng/mL GM-CSF and the indicated chemical compounds.
FIG. 6. […] (A) Proliferation rates were determined after 2 h [^3H]-thymidine pulse labeling in BM cells from empty, ABCA1-WT and ABCA1 mutants-transduced animals on a Tet2 deficient background that were grown for 72 h in liquid culture in the presence or absence of 50 μg/mL PEG-HDL. […]

[2] = tested on: ABCA1 mutant-transduced Tet2 deficient BM cells; assay: cell viability of treated ex vivo BM cultures; type: cell-based, mouse; conditions: same treated BM cultures; data not shown
Protocol: Briefly, femurs were flushed with ice-cold PBS and centrifugated for 5 min at 1,000 rpm to extract BM cells. After red blood cell lysis, over 90% of BM cells were CD45-positive cells of hematopoietic origin (Westerterp et al., 2012). Primary BM cells were resuspended in IMDM (Gibco) containing 10% FCS (STEMCELL Technologies) and cultured for 1 h in tissue culture flasks to remove adherent cells, including macrophages. The transduction rate of control, ABCA1-WT and ABCA 1-mutant lentiviral particles was determined after BM transplantation as described above. Suspended cells were then normalized to the same concentration and cultured for 72 h in the presence of 6 ng/mL IL-3 and 2 ng/mL GM-CSF (R&D Systems). In some experiments, the cyclodextrin (Sigma) was used at the final concentration of 5 mM, tempol (EMD Millipore) at 4 mM and anti-IL3Rbeta AF549 antibody (R&D Systems) at 50 μg/mL.

Compound	basal proliferation and IL-3/GM-CSF hypersensitivity of ABCA1 mutants-transduced Tet2 deficient BM cells ([1]; tempol 4 mM, 72 h culture with or without 6 ng/mL IL-3 and 2 ng/mL GM-CSF)	proliferation of ABCA1 mutant-transduced Tet2 deficient BM cells ([1]; 72 h culture in presence or absence of IL-3 and GM-CSF, cyclodextrin 5 mM, antibody 50 μg/mL, effect similar to ABCA1-WT overexpression)	cell viability [2]
CC1(C)CC(O)CC(C)(C)N1[O] [tempol]	prevented the basal proliferation and IL-3/GM-CSF hypersensitivity	–	–
cyclodextrin	–	prevented the proliferation	without affecting cell viability
